# Results taken from ChEMBL document CHEMBL1201862, “PubChem BioAssay data set” (2004).
#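 Cells were grown in 96-well plates and exposed to each compound for 48 hours at five concentrations; endpoints were interpolated linearly between bracketing concentrations, or set to the highest concentration if not reached. GI50 is the concentration that inhibits growth by half.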 Active and inactive are the calls of the source. No stated cut-off is given here; in the data, active = GI50 up to about 1.1 µM and inactive = higher.
# Assays:
# Assay in all cases: growth of human tumour cells (NCI), 48 h
# [1] = tested on: MCF7
# [2] = tested on: A498
# [3] = tested on: XF498
# [4] = tested on: CCRF-CEM
# [5] = tested on: DMS-114
# [6] = tested on: OVCAR-8
# [7] = tested on: A549
# [8] = tested on: NCI-H522
# [9] = tested on: OVCAR-5
# [10] = tested on: SK-OV-3
# [11] = tested on: HT-29
# [12] = tested on: HCT-15
# [13] = tested on: NCI-H460
# [14] = tested on: EKVX
# [15] = tested on: SNB-78
# [16] = tested on: SK-MEL-28
# [17] = tested on: M19-MEL
# [18] = tested on: HOP-92
# [19] = tested on: OVCAR-3
# [20] = tested on: HL-60
# [21] = tested on: KM12
# [22] = tested on: SNB-19
# [23] = tested on: SNB-75
# [24] = tested on: MOLT-4
# [25] = tested on: UO-31
# [26] = tested on: NCI-H23
# [27] = tested on: NCI/ADR-RES
# [28] = tested on: DLD-1
# [29] = tested on: Malme-3M
# [30] = tested on: UACC-257
# [31] = tested on: NCI-H226
# [32] = tested on: U-251
# [33] = tested on: SN12C
# [34] = tested on: SK-MEL-5
# [35] = tested on: HOP-18
# [36] = tested on: HCC 2998
# [37] = tested on: BT-549
# [38] = tested on: LOX IMVI
# [39] = tested on: RPMI-8226
# [40] = tested on: COLO 205
# [41] = tested on: K562
# [42] = tested on: UACC-62
# [43] = tested on: HCT-116
# [44] = tested on: RXF 393
# [45] = tested on: MDA-MB-231
# [46] = tested on: SF-268
# [47] = tested on: SF-539
# [48] = tested on: SK-MEL-2
# [49] = tested on: SF-295
# [50] = tested on: IGROV-1
# [51] = tested on: DMS-273
# [52] = tested on: SW-620
# [53] = tested on: CAKI-1
# [54] = tested on: ACHN
# [55] = tested on: T47D
# [56] = tested on: HOP-62
# [57] = tested on: KM-20L2
# [58] = tested on: 786-0
# [59] = tested on: LXFL 529
# [60] = tested on: TK-10
# [61] = tested on: M14
# [62] = tested on: OVCAR-4
compound,measurement,setting,value
CCCCCCCCCCCCCCCCCCOP(=O)([O-])OCC[N+](C)(C)C [OCTADECYLPHOSPHONOCHOLINE],GI50,[1],382 nM (active)
same,GI50,[2],8.41 µM (inactive)
same,GI50,[3],12.4 µM (inactive)
same,GI50,[4],0.366 µM (active)
same,GI50,[5],13.6 µM (inactive)
same,GI50,[6],1.02 µM (active)
same,GI50,[7],1.35 µM (inactive)
same,GI50,[8],419 nM (active)
same,GI50,[9],1.53 µM (inactive)
same,GI50,[10],5.69 µM (inactive)
same,GI50,[11],0.608 µM (active)
same,GI50,[12],0.644 µM
same,GI50,[13],0.41 µM (active)
same,GI50,[14],2.14 µM (inactive)
same,GI50,[15],10.2 µM (inactive)
same,GI50,[16],8.22 µM (inactive)
same,GI50,[17],4.24 µM (inactive)
same,GI50,[18],330 nM (active)
same,GI50,[19],0.877 µM (active)
same,GI50,[20],317 nM (active)
same,GI50,[21],0.273 µM (active)
same,GI50,[22],0.849 µM (active)
same,GI50,[23],0.836 µM (active)
same,GI50,[24],0.295 µM (active)
same,GI50,[25],1.13 µM (inactive)
same,GI50,[26],1.13 µM (inactive)
same,GI50,[27],1.32 µM (inactive)
same,GI50,[28],4.7 µM (inactive)
same,GI50,[29],1.02 µM (active)
same,GI50,[30],1.19 µM (inactive)
same,GI50,[31],787 nM (active)
same,GI50,[32],0.695 µM (active)
same,GI50,[33],0.502 µM (active)
same,GI50,[34],1.42 µM (inactive)
same,GI50,[35],15.9 µM (inactive)
same,GI50,[36],0.245 µM (active)
same,GI50,[37],1.22 µM (inactive)
same,GI50,[38],0.863 µM (active)
same,GI50,[39],0.276 µM (active)
same,GI50,[40],0.146 µM (active)
same,GI50,[41],0.957 µM (active)
same,GI50,[42],4.4 µM (inactive)
same,GI50,[43],0.826 µM (active)
same,GI50,[44],2.45 µM (inactive)
same,GI50,[45],44.7 nM (active)
same,GI50,[46],0.807 µM (active)
same,GI50,[47],1.2 µM (inactive)
same,GI50,[48],0.998 µM (active)
same,GI50,[49],0.736 µM (active)
same,GI50,[50],0.614 µM (active)
same,GI50,[51],1.74 µM (inactive)
same,GI50,[52],0.771 µM (active)
same,GI50,[53],0.321 µM (active)
same,GI50,[54],< 0.0488 µM (active)
same,GI50,[55],< 20.9 nM (active)
same,GI50,[56],0.301 µM (active)
same,GI50,[57],3.38 µM (inactive)
CC(C)C(=O)N[C@@H](C)C(=O)N(Cc1ccc2ccccc2c1)N=O,GI50,[2],58.2 µM (inactive)
same,GI50,[3],> 100 µM (inactive)
same,GI50,[58],> 100 µM (inactive)
same,GI50,[4],61.4 µM (inactive)
same,GI50,[5],33.7 µM (inactive)
same,GI50,[6],> 100 µM (inactive)
same,GI50,[7],82.4 µM (inactive)
same,GI50,[9],48.8 µM (inactive)
same,GI50,[10],> 100 µM (inactive)
same,GI50,[11],> 100 µM (inactive)
same,GI50,[12],77.4 µM
same,GI50,[13],82 µM (inactive)
same,GI50,[14],> 100 µM (inactive)
same,GI50,[15],> 100 µM (inactive)
same,GI50,[16],> 100 µM (inactive)
same,GI50,[17],97.7 µM (inactive)
same,GI50,[19],62.7 µM (inactive)
same,GI50,[21],> 10 µM (inactive)
same,GI50,[22],> 100 µM (inactive)
same,GI50,[23],> 100 µM (inactive)
same,GI50,[24],39.4 µM (inactive)
same,GI50,[59],71.9 µM (inactive)
same,GI50,[25],30 µM (inactive)
same,GI50,[28],> 100 µM (inactive)
same,GI50,[29],> 100 µM (inactive)
same,GI50,[30],> 100 µM (inactive)
same,GI50,[60],> 100 µM (inactive)
same,GI50,[32],72.4 µM (inactive)
same,GI50,[61],84.1 µM (inactive)
same,GI50,[33],> 100 µM (inactive)
same,GI50,[34],> 100 µM (inactive)
same,GI50,[35],0.057 µM (active)
same,GI50,[36],> 100 µM (inactive)
same,GI50,[38],46 µM (inactive)
same,GI50,[39],43.6 µM (inactive)
same,GI50,[40],> 100 µM (inactive)
same,GI50,[41],36.1 µM (inactive)
same,GI50,[42],48 µM (inactive)
same,GI50,[43],68.9 µM (inactive)
same,GI50,[46],> 100 µM (inactive)
same,GI50,[47],> 100 µM (inactive)
same,GI50,[48],98.9 µM (inactive)
same,GI50,[49],48.6 µM (inactive)
same,GI50,[50],95.9 µM (inactive)
same,GI50,[51],28.8 µM (inactive)
same,GI50,[52],55.5 µM (inactive)
same,GI50,[53],40.5 µM (inactive)
same,GI50,[54],> 100 µM (inactive)
same,GI50,[56],> 100 µM (inactive)
same,GI50,[57],> 100 µM (inactive)
same,GI50,[62],54.7 µM (inactive)
